Literature values, collected in patent publication US10702520B1, “Pharmaceutical compositions of posaconazole” (SLAYBACK PHARMA LLC, priority 2019, dated 2020).
Where two headings read alike, the source gives them in different places.

Row | solubility (in 0.1 N Hydrochloric acid) [µg/mL] | solubility (in water) | solubility (at gastric pH) | solubility (pH about 6.4 or higher) | Structure (SMILES)
1 | 6 | less than 1 μg/mL |  |  | CCC(C)n1ncn(-c2ccc(N3CCN(c4ccc(OC[C@H]5CO[C@](Cn6cncn6)(c6ccc(Cl)cc6Cl)O5)cc4)CC3)cc2)c1=O (mixture of isomers) [Itraconazole]
2 |  |  | approximately 0.8 mg/mL | less than 1 μg/mL | CC[C@@H]([C@H](C)O)n1ncn(-c2ccc(N3CCN(c4ccc(OC[C@@H]5CO[C@@](Cn6cncn6)(c6ccc(F)cc6F)C5)cc4)CC3)cc2)c1=O [Posaconazole free base, 4-[4-[4-[4-[[(3R,5R)-5-(2,4-difluorophenyl)tetrahydro-5-(1H-1,2,4-triazol-1-ylmethyl)-3-furanyl]methoxy]phenyl]-1-piperazinyl]phenyl]-2-[(1S,2S)-1-ethyl-2-hydroxypropyl]-2,4-dihydro-3H-1,2,4-triazol-3-one]
